Values quoted from earlier work as cited in publication PMC9901186 (bioRxiv, 2023).

Tested on: NOD1

## CCCCCCCCCCCC(=O)N[C@H](CCC(=O)NC(CCCC(N)C(=O)O)C(=O)O)C(=O)O (stereo partly shown) [C12-iE-DAP]
  greater activation of NOD1-dependent NF-κB reporter relative to iE-DAP: ~ 100 fold
